Assay results reported in EP3502093A1, “ZWITTERIONIC PILLARARENE DERIVATIVE” (Freie Universität Berlin, priority 2017, dated 2019).

Experiments:
[1] = tested on: E. coli biofilm; experiment: prolonged incubation (24 h, 72 h, 120 h) of 1-day pre-fabricated biofilm, regrowth and resistance; type: cell-based; conditions: 1-day biofilm, 200 nM
Description: Biofilms are considered to be highly resistant to antibacterial agents due to restricted penetration of antibacterial agents into biofilms, slow growth owing to nutrient limitation, expression of genes involved in the general stress response, and emergence of a biofilm-specific phenotype. Thus, it is important to investigate the emergence of resistances against a new antibacterial agent used for combating biofilms. Therefore, ZW-PA nanoparticles in a concentration of 200 nM were applied to a biofilm pre-fabricated for 1 day. Subsequently, the biofilm was incubated with ZW-PA nanoparticles and investigated after 1 day incubation (24 h, cultivated 1 + 1 days), after 3 days incubation (72 h, cultivated 1 + 3 days), and after 5 days incubation (120 h, cultivated 1 + 5 days). PBS and 200 nM ampicillin were used as controls. The scale bars in all plots of Figure 3 represent 50 µm.

[2] = tested on: E. coli biofilm; experiment: treatment of pre-fabricated biofilms of different stages for 24 h, LIVE/DEAD staining; type: cell-based; conditions: 200 nM, treated 24 h
Description: As depicted in Figure 2, E. coli biofilm in different stages - namely, in colony formation stage (1 day growth ["cultivated 1 + 1 days"]) and in maturation stages (3 days growth ["cultivated 1 + 3 days"] or 5 days growth ["cultivated 1 + 5 days"], respectively), were pre-fabricated according to literature^16 and then treated with a dose of 200 nM ZW-PA nanoparticles, 200 nM ampicillin or PBS for another 24 h. Afterwards, the resulting biofilms on the 2nd day, the 4th day and the 6th day were observed. A LIVE/DEAD staining of the E. coli cells was applied. By this staining, living cells are stained green, while dead cells are stained red. […] Specifically, the biofilm height increased from 8 µm on the 2nd day (1st + 1 day) to 25 µm on the 6th day (1st + 5 days). Only green (living) cells could be observed. The scale bars in all plots of Figure 2 represent 50 µm.

[3] = biofilm grown 1 day (1 + 1 days)
[4] = biofilm grown 5 days (1 + 5 days)

CC1(C)S[C@@H]2[C@H](NC(=O)[C@H](N)c3ccccc3)C(=O)N2[C@H]1C(=O)O [ampicillin]
LIVE/DEAD staining, killing of cells in biofilm ([1]; 24 h incubation (1 + 1 days)): a part of the cells could be killed | LIVE/DEAD staining, living versus dead cells ([1]; 72 h incubation (1 + 3 days)): more green than red cells | LIVE/DEAD staining, living versus dead cells ([1]; 120 h incubation (1 + 5 days)): more red than green cells | cell density and reformation of the biofilm on further incubation ([1]; further incubated to 72 h and 120 h): the biofilm could gradually reform | LIVE/DEAD staining, killing of cells in biofilm [2, 3]: less than the half of the cells, were stained red | biofilm height [2, 3]: 5 µm | LIVE/DEAD staining, killing of cells in biofilm ([2]; biofilm grown 3 days (1 + 3 days)): most of the cells were still alive | LIVE/DEAD staining, killing of cells in biofilm [2, 4]: effective only against the cells on the surface layer of the biofilm | biofilm height [2, 4]: 24 µm
